Test results: PubChem BioAssay (NCI)
“And” between values parts separate entries of the source, which are not always exact repeats. Equal values may be shown once.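 Each compound was tested at five concentrations against cells in 96-well plates for 48 hours. GI50 marks 50% less growth. TGI marks complete inhibition of growth.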

Tests used:
Test in all cases: DTP human tumour cell line panel, 48 h; in the data active = GI50 below about 0.43 µM; inactive = the rest
HCT-116 colon = test system: HCT-116 colon
NCI-H460 lung = test system: NCI-H460 lung
SNB-75 CNS = test system: SNB-75 CNS
HS 578T breast = test system: HS 578T breast
RPMI-8226 leukemia = test system: RPMI-8226 leukemia
HCC-2998 colon = test system: HCC-2998 colon
ACHN renal = test system: ACHN renal
SF-295 CNS = test system: SF-295 CNS
KM12 colon = test system: KM12 colon
OVCAR-4 ovarian = test system: OVCAR-4 ovarian
OVCAR-5 ovarian = test system: OVCAR-5 ovarian
NCI-H522 lung = test system: NCI-H522 lung
SF-539 CNS = test system: SF-539 CNS
MOLT-4 leukemia = test system: MOLT-4 leukemia
NCI/ADR-RES ovarian = test system: NCI/ADR-RES ovarian
COLO 205 colon = test system: COLO 205 colon
786-0 renal = test system: 786-0 renal
UACC-257 melanoma = test system: UACC-257 melanoma
SN12C renal = test system: SN12C renal
T-47D breast = test system: T-47D breast
A549 NSCLC = test system: A549 NSCLC
PC-3 prostate = test system: PC-3 prostate
M14 melanoma = test system: M14 melanoma
OVCAR-8 ovarian = test system: OVCAR-8 ovarian
MDA-N = test system: MDA-N
HOP-62 NSCLC = test system: HOP-62 NSCLC
SW-620 colon = test system: SW-620 colon
TK-10 renal = test system: TK-10 renal
SF-268 CNS = test system: SF-268 CNS
HCT-15 colon = test system: HCT-15 colon
SK-MEL-5 melanoma = test system: SK-MEL-5 melanoma
MDA-MB-231 breast = test system: MDA-MB-231 breast
HL-60(TB) leukemia = test system: HL-60(TB) leukemia
SR leukemia = test system: SR leukemia
SK-MEL-28 melanoma = test system: SK-MEL-28 melanoma
SNB-19 CNS = test system: SNB-19 CNS
UO-31 renal = test system: UO-31 renal
IGROV1 ovarian = test system: IGROV1 ovarian
HT29 colon = test system: HT29 colon
EKVX NSCLC = test system: EKVX NSCLC
SK-OV-3 ovarian = test system: SK-OV-3 ovarian
UACC-62 melanoma = test system: UACC-62 melanoma
CCRF-CEM leukemia = test system: CCRF-CEM leukemia
LOX IMVI melanoma = test system: LOX IMVI melanoma
NCI-H23 lung = test system: NCI-H23 lung
DU-145 prostate = test system: DU-145 prostate
RXF 393 renal = test system: RXF 393 renal
U251 CNS = test system: U251 CNS
A498 renal = test system: A498 renal
NCI-H226 lung = test system: NCI-H226 lung
MDA-MB-435 = test system: MDA-MB-435
CAKI-1 renal = test system: CAKI-1 renal
K-562 leukemia = test system: K-562 leukemia
MALME-3M melanoma = test system: MALME-3M melanoma
SK-MEL-2 melanoma = test system: SK-MEL-2 melanoma
MCF7 breast = test system: MCF7 breast
HOP-92 NSCLC = test system: HOP-92 NSCLC
BT-549 breast = test system: BT-549 breast
OVCAR-3 ovarian = test system: OVCAR-3 ovarian

C[n+]1c(-c2ccc(/C=N/Nc3ccnc(N/N=C/c4ccc(-c5cn6ccccc6[n+]5C)cc4)n3)cc2)cn2ccccc21
93.1 µM: TGI (HS 578T breast)
73.3 µM: TGI (RPMI-8226 leukemia)
54.4 µM: TGI (ACHN renal)
45.4 µM: TGI (UO-31 renal)
65.7 µM: TGI (HL-60(TB) leukemia)
> 100 µM: TGI (HCT-116 colon) | TGI (NCI-H460 lung) | TGI (SNB-75 CNS) | TGI (HCC-2998 colon) | TGI (KM12 colon) | TGI (OVCAR-4 ovarian) | TGI (OVCAR-5 ovarian) | TGI (NCI-H522 lung) | TGI (MOLT-4 leukemia) | TGI (NCI/ADR-RES ovarian) | TGI (COLO 205 colon) | TGI (786-0 renal) | TGI (UACC-257 melanoma) | TGI (SN12C renal) | TGI (T-47D breast) | TGI (A549 NSCLC) | TGI (PC-3 prostate) | TGI (M14 melanoma) | TGI (OVCAR-8 ovarian) | TGI (MDA-N) | TGI (HOP-62 NSCLC) | TGI (SW-620 colon) | TGI (TK-10 renal) | TGI (SF-268 CNS) | TGI (HCT-15 colon) | TGI (SK-MEL-5 melanoma) | TGI (MDA-MB-231 breast) | TGI (SR leukemia) | TGI (SNB-19 CNS) | TGI (IGROV1 ovarian) | TGI (HT29 colon) | TGI (EKVX NSCLC) | TGI (SK-OV-3 ovarian)
95.8 µM: TGI (SK-MEL-28 melanoma)
40.1 µM: TGI (SF-539 CNS)
79.6 µM: TGI (SF-295 CNS)

CCOC(=O)c1c(-c2ccc(OC)c(O)c2)c(C#N)c(=S)n(C2OC(CO)C(O)C(O)C2O)c1-c1ccccc1 (stereo not given)
> 100 µM: TGI (HCT-116 colon) | TGI (NCI-H460 lung) | TGI (HS 578T breast) | TGI (RPMI-8226 leukemia) | TGI (HCC-2998 colon) | TGI (UACC-62 melanoma) | TGI (ACHN renal) | TGI (CCRF-CEM leukemia) | TGI (SF-295 CNS) | TGI (KM12 colon) | TGI (OVCAR-4 ovarian) | TGI (MOLT-4 leukemia) | TGI (NCI/ADR-RES ovarian) | TGI (LOX IMVI melanoma) | TGI (COLO 205 colon) | TGI (786-0 renal) | TGI (UACC-257 melanoma) | TGI (SN12C renal) | TGI (NCI-H23 lung) | TGI (DU-145 prostate) | TGI (A549 NSCLC) | TGI (PC-3 prostate) | TGI (M14 melanoma) | TGI (MDA-N) | TGI (HOP-62 NSCLC) | TGI (RXF 393 renal) | TGI (SW-620 colon) | TGI (U251 CNS) | TGI (SF-268 CNS) | TGI (HCT-15 colon) | TGI (SK-MEL-5 melanoma) | TGI (A498 renal) | TGI (SR leukemia) | TGI (SK-MEL-28 melanoma) | TGI (SNB-19 CNS) | TGI (NCI-H226 lung) | TGI (UO-31 renal) | TGI (MDA-MB-435) | TGI (IGROV1 ovarian) | TGI (HT29 colon) | TGI (CAKI-1 renal) | TGI (EKVX NSCLC) | TGI (K-562 leukemia)

CC(C)(F)C[C@H](N[C@@H](c1ccc(-c2ccc(S(C)(=O)=O)cc2)cc1)C(F)(F)F)C(=O)NC1(C#N)CC1
55 µM and 91.2 µM: TGI (IGROV1 ovarian)
> 55 µM and 81.2 µM: TGI (TK-10 renal)
inactive: GI50 (HCT-116 colon) 22 µM and > 100 µM | GI50 (NCI-H460 lung) 33.6 µM and 49.7 µM | GI50 (SNB-75 CNS) 7.51 µM and 16.4 µM | GI50 (HS 578T breast) 13.6 µM and 21.1 µM | GI50 (RPMI-8226 leukemia) > 100 µM | GI50 (HCC-2998 colon) > 100 µM | GI50 (UACC-62 melanoma) 27.3 µM and 51.9 µM | GI50 (ACHN renal) > 55 µM and 39.5 µM | GI50 (CCRF-CEM leukemia) > 100 µM | GI50 (SF-295 CNS) 18.8 µM and 17.9 µM | GI50 (KM12 colon) > 100 µM | GI50 (OVCAR-4 ovarian) 9.47 µM and 19.5 µM | GI50 (OVCAR-5 ovarian) > 100 µM | GI50 (MALME-3M melanoma) 17.5 µM and 22.2 µM | GI50 (NCI-H522 lung) 15.8 µM and 24.7 µM | GI50 (SF-539 CNS) 11.8 µM and 23.1 µM | GI50 (MOLT-4 leukemia) > 100 µM | GI50 (NCI/ADR-RES ovarian) 34.1 µM | GI50 (LOX IMVI melanoma) > 100 µM | GI50 (COLO 205 colon) > 100 µM | GI50 (786-0 renal) 9.02 µM and 26.2 µM | GI50 (UACC-257 melanoma) > 55 µM and 61.8 µM | GI50 (SN12C renal) 14.8 µM and 42.6 µM | GI50 (SK-MEL-2 melanoma) 13.4 µM and 38.6 µM | GI50 (NCI-H23 lung) 28.5 µM and 39.9 µM | GI50 (T-47D breast) 35.7 µM and 99.7 µM | GI50 (DU-145 prostate) 47.6 µM and 44.4 µM | GI50 (A549 NSCLC) > 55 µM and 41.8 µM | GI50 (PC-3 prostate) 36.9 µM and 27.9 µM | GI50 (M14 melanoma) > 100 µM | GI50 (OVCAR-8 ovarian) 18 µM and 19.5 µM | GI50 (HOP-62 NSCLC) 12.2 µM and 22.6 µM | GI50 (RXF 393 renal) 7.14 µM and 20.5 µM | GI50 (SW-620 colon) > 100 µM | GI50 (TK-10 renal) > 55 µM and 31.1 µM | GI50 (U251 CNS) 17.9 µM and 30.3 µM | GI50 (SF-268 CNS) 22 µM and 18.8 µM | GI50 (HCT-15 colon) > 100 µM | GI50 (SK-MEL-5 melanoma) > 55 µM and 73.1 µM | GI50 (MDA-MB-231 breast) 18.6 µM and 34.4 µM | GI50 (MCF7 breast) 35 µM and > 100 µM | GI50 (HL-60(TB) leukemia) > 100 µM | GI50 (HOP-92 NSCLC) 5.81 µM and 7.42 µM | GI50 (A498 renal) 33.6 µM and 28 µM | GI50 (SR leukemia) 93.1 µM | GI50 (SK-MEL-28 melanoma) 49.1 µM and 36.3 µM | GI50 (BT-549 breast) 8.65 µM and 28.2 µM | GI50 (SNB-19 CNS) 16.6 µM and 18.3 µM | GI50 (NCI-H226 lung) 16.4 µM and 23.6 µM | GI50 (UO-31 renal) 49.3 µM and 23.2 µM | GI50 (OVCAR-3 ovarian) > 55 µM and 19.9 µM | GI50 (MDA-MB-435) > 100 µM | GI50 (IGROV1 ovarian) 33.2 µM and 30.2 µM | GI50 (HT29 colon) > 100 µM | GI50 (CAKI-1 renal) 18.7 µM and 27.4 µM | GI50 (EKVX NSCLC) 30.7 µM | GI50 (SK-OV-3 ovarian) 23 µM and 27.5 µM | GI50 (K-562 leukemia) > 100 µM
18 µM and 45.2 µM: TGI (RXF 393 renal)
30.3 µM and 28.4 µM: TGI (HOP-92 NSCLC)
40.7 µM and 53.5 µM: TGI (HOP-62 NSCLC)
55 µM: TGI (NCI/ADR-RES ovarian) | TGI (EKVX NSCLC)
> 55 µM and 47.9 µM: TGI (OVCAR-3 ovarian)
> 100 µM: TGI (RPMI-8226 leukemia) | TGI (HCC-2998 colon) | TGI (ACHN renal) | TGI (CCRF-CEM leukemia) | TGI (KM12 colon) | TGI (OVCAR-5 ovarian) | TGI (MOLT-4 leukemia) | TGI (LOX IMVI melanoma) | TGI (COLO 205 colon) | TGI (UACC-257 melanoma) | TGI (A549 NSCLC) | TGI (M14 melanoma) | TGI (SW-620 colon) | TGI (HCT-15 colon) | TGI (SK-MEL-5 melanoma) | TGI (HL-60(TB) leukemia) | TGI (SR leukemia) | TGI (MDA-MB-435) | TGI (HT29 colon) | TGI (K-562 leukemia)
55 µM and 48.9 µM: TGI (SF-268 CNS)
55 µM and 62 µM: TGI (MALME-3M melanoma)
31.8 µM and 53.2 µM: TGI (SF-539 CNS)
55 µM and 63.8 µM: TGI (OVCAR-8 ovarian)
42.8 µM and 47.4 µM: TGI (OVCAR-4 ovarian)
29.8 µM and 39.4 µM: TGI (SNB-75 CNS)
55 µM and 70.7 µM: TGI (SK-OV-3 ovarian)
55 µM and 87.8 µM: TGI (786-0 renal)
55 µM and > 100 µM: TGI (HCT-116 colon) | TGI (NCI-H460 lung) | TGI (UACC-62 melanoma) | TGI (NCI-H522 lung) | TGI (SN12C renal) | TGI (SK-MEL-2 melanoma) | TGI (NCI-H23 lung) | TGI (T-47D breast) | TGI (DU-145 prostate) | TGI (PC-3 prostate) | TGI (U251 CNS) | TGI (MDA-MB-231 breast) | TGI (MCF7 breast) | TGI (A498 renal) | TGI (SK-MEL-28 melanoma) | TGI (UO-31 renal) | TGI (CAKI-1 renal)
55 µM and 63.6 µM: TGI (NCI-H226 lung)
55 µM and 63.9 µM: TGI (HS 578T breast)
55 µM and 50.9 µM: TGI (SF-295 CNS)
55 µM and 82.8 µM: TGI (BT-549 breast)
55 µM and 62.2 µM: TGI (SNB-19 CNS)
